{"source": "patent US20060178351A1", "about": "“Treatment of immune-mediated disorders with active vitamin D compounds alone or in combination with other therapeutic agents” (Novacea, Inc., priority 2003, published 2006)", "origin": "cited, not measured here", "details": "relative to an equal dose of calcitriol", "data": [{"smiles": "C=C1/C(=C\\C=C2/CCC[C@]3(C)C([C@H](C)CC#CC(C)(C)O)=CC[C@@H]23)C[C@@H](O)C[C@@H]1O", "note": "[Ro23-7553]", "values": [{"measurement": "Hypercalcemic effect compared to calcitriol", "value": "reduced hypercalcemic effect"}]}]}
